Values quoted from earlier work in patent US20170068777A1, “METHODS OF IDENTIFYING AND F[…] COMPOUNDS THAT MODULATE PHENOTYPE-RELATED TARGETS” (Tufts University, priority 2015, published 2017).

Details: shown experimentally in the literature

Row | SMILES | effect on TG levels
1 | CC1(C)[C@@H](O)CC[C@]2(C)[C@H]3C(=O)C=C4[C@@H]5C[C@@](C)(C(=O)O)CC[C@]5(C)CC[C@@]4(C)[C@]3(C)CC[C@@H]12 [Glycyrrhetic acid] | lower TG levels
2 | CC1(C(=O)O)CCC2(C)CCC3(C)C(=CCC4C5(C)CCC(O)C(C)(CO)C5CCC43C)C2C1 (centres unmarked) [Azukisapogenol] | lower TG levels
